Assays:
in vitro [1] = settings: African green monkey
PIKFYVE = target: T1, PIKFYVE (Homo sapiens, UniProt Q9Y2I7); assay: KINOMEscan Kinase Assay (Eurofins), PIKFYVE inhibitory activity; format: binding; settings: for IC50: KINOMEscan; for inhibition at 0.003 µM: @ 3 nM; for inhibition at 0.005 µM: @ 5 nM
T1 construct: purchased Eurofins (KINOMEscan); host or cells: E. coli BL21-derived (T7 phage display) or HEK-293

[2] = test system: HuT-78 (T cell lymphoma) cells; assay: Anti-proliferative activity, HuT-78 (CellTiter-Glo); settings: Homo sapiens, HuT78, 144 h
[3] = test system: Ebola virus (Mayinga strain) glycoprotein (rVSV-EBOV-GP); assay: microbe, parasite or virus in culture; format: cell-based
[4] = test system: SARS-CoV-2 (Delta strain B.1.617); assay: SARS-CoV-2 Delta antiviral assay (inhibition of CPE, neutral red); format: cell-based; settings: SARS-COV2 (Delta)
[5] = test system: Marburg virus (Angola strain) glycoprotein (rVSV-MARV-GP); assay: organism not typed; format: cell-based
[6] = test system: JJN3 (multiple myeloma) cells; assay: Anti-proliferative activity, JJN3 (CellTiter-Glo); settings: Homo sapiens, JJN-3, 144 h
[7] = test system: influenza A strain California/07/09 (H1N1)pdm09; assay: Influenza A antiviral assay (inhibition of CPE, neutral red); format: cell-based; settings: for EC50: Influenza A virus, H1N1
[8] = test system: SARS-CoV-2 (strain USA-WA1/2020); assay: SARS-CoV-2 antiviral assay (inhibition of CPE, neutral red); format: cell-based; settings: SARS-COV2; for EC50: Severe acute respiratory syndrome coronavirus 2, inhibition of CPE by 50%
in vitro [9] = settings: dog

T1 sequence (Q9Y2I7 whole entry): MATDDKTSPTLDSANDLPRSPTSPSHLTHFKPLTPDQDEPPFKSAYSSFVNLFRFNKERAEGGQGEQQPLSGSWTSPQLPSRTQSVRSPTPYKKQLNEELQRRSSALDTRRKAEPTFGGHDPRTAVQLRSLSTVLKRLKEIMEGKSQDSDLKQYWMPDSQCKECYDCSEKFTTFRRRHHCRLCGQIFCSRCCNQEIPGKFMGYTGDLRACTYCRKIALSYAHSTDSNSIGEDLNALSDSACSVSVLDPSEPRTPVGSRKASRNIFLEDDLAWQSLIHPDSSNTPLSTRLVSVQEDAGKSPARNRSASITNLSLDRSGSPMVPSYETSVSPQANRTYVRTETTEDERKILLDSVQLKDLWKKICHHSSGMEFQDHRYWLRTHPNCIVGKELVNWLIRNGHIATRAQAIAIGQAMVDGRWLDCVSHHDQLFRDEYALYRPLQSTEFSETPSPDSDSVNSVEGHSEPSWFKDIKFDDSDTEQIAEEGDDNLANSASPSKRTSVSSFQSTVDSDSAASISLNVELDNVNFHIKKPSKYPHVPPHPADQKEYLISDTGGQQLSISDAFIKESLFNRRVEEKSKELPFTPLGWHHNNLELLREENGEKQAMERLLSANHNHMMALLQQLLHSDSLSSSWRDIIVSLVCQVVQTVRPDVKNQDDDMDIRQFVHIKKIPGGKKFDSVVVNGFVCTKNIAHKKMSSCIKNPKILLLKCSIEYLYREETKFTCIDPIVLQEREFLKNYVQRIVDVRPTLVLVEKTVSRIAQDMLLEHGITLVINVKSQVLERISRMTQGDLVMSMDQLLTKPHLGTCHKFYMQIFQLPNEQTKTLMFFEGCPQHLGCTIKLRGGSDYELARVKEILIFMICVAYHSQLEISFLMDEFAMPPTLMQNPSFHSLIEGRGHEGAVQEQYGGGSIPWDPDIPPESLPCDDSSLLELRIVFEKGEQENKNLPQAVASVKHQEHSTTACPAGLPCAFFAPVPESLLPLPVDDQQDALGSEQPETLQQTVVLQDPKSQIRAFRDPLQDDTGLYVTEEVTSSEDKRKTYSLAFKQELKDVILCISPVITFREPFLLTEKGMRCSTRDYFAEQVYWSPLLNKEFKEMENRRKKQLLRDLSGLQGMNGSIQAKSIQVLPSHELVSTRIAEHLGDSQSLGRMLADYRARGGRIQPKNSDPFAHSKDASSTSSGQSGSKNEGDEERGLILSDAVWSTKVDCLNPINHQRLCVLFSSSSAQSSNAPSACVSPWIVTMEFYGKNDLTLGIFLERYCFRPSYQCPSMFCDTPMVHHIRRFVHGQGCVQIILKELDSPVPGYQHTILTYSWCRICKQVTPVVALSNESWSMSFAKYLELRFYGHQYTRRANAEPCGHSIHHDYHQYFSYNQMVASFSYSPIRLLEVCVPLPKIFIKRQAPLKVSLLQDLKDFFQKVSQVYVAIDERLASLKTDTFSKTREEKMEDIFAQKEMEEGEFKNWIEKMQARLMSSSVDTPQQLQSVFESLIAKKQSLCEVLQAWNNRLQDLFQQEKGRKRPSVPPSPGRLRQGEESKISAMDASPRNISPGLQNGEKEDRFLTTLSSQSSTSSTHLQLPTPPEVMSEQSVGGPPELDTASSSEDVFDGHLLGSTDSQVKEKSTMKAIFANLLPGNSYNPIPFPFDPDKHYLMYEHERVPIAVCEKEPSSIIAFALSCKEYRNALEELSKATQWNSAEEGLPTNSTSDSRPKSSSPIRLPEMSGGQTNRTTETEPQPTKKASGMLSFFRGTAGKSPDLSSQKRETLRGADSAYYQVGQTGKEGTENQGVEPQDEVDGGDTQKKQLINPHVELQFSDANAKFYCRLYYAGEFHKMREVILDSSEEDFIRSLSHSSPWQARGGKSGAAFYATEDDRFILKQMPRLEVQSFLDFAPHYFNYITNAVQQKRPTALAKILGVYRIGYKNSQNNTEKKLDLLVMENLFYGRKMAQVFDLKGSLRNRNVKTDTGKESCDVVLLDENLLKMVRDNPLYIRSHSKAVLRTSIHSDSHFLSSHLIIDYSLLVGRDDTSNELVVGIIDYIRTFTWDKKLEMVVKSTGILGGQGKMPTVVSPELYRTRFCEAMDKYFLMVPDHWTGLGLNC

## Cc1cccc(-c2ccn(-c3nc(N4CCOCC4)c4sc(CN5CCN(S(C)(=O)=O)CC5)cc4n3)n2)c1 [Ex. 2, 4-(6-((4-(methylsulfonyl)piperazin-1-yl)methyl)-2-(3-(m-tolyl)-1H-pyrazol-1-yl)thieno[3,2-d]pyrimidin-4-yl)morpholine]
In vitro [1]
  CC50: > 3000 µM
PIKFYVE
  IC50: < 0.001 µM
[2]
  EC50: < 0.25 µM
[3]
  Selectivity Index: >6000
[3]; Zaire ebolavirus, Vero
  EC50: < 0.5 µM
[4]; CC50 divided by EC50
  Selectivity Index: >1000
[4]; Severe acute respiratory syndrome coronavirus 2
  EC50: < 3 µM
[5]
  Selectivity Index: >15000
[5]; Vero
  EC50: < 0.2 µM
[6]
  EC50: < 0.05 µM
[7]
  EC50: < 1 µM
[7]; Influenza A, CC50 divided by EC50
  Selectivity Index: >150
[8]; CC50 divided by EC50
  Selectivity Index: >150
[8]
  EC50: < 1 µM

## Cc1cccc(-c2ccn(-c3nc(N4CCOCC4)c4sc(C(=O)N5CC[C@@H](N(C)C)C5)c(C)c4n3)n2)c1 [Ex. 60, (R)-(3-(dimethylamino)pyrrolidin-1-yl)(7-methyl-4-morpholino-2-(3-(m-tolyl)-1H-pyrazol-1-yl)thieno[3,2-d]pyrimidin-6-yl)methanone]
PIKFYVE
  IC50: 0.001 to 0.01 µM

## Cc1cccc(-c2ccn(-c3nc(N4CCOCC4)c4sc(C(=O)N5CCC(C(C)(C)O)CC5)c(C)c4n3)n2)c1 [Ex. 61, (4-(2-hydroxypropan-2-yl)piperidin-1-yl)(7-methyl-4-morpholino-2-(3-(m-tolyl)-1H-pyrazol-1-yl)thieno[3,2-d]pyrimidin-6-yl)methanone]
PIKFYVE
  IC50: < 0.001 µM

## Cc1cccc(-c2ccn(-c3nc(N4CCOCC4)c4nc(CN5CCC(C(C)(C)O)CC5)n(C)c4n3)n2)c1 [Ex. 62, 2-(1-((9-methyl-6-morpholino-2-(3-(m-tolyl)-1H-pyrazol-1-yl)-9H-purin-8-yl)methyl)piperidin-4-yl)propan-2-ol]
PIKFYVE
  IC50: 0.001 to 0.01 µM

## Cc1cccc(-c2ccn(-c3nc(N4CCOCC4)c4sc(CN5CC(C6CCOCC6)C5)c(C)c4n3)n2)c1 [Ex. 63, 4-(7-methyl-6-((3-(tetrahydro-2H-pyran-4-yl)azetidin-1-yl)methyl)-2-(3-(m-tolyl)-1H-pyrazol-1-yl)thieno[3,2-d]pyrimidin-4-yl)morpholine]
PIKFYVE
  IC50: 0.001 to 0.01 µM

## COC(C)(C)c1sc2c(N3CCOCC3)nc(-n3ccc(-c4cccc(C)c4)n3)nc2c1C [Ex. 64, 4-(6-(2-methoxypropan-2-yl)-7-methyl-2-(3-(m-tolyl)-1H-pyrazol-1-yl)thieno[3,2-d]pyrimidin-4-yl)morpholine]
PIKFYVE
  IC50: 0.001 to 0.01 µM

## COC1(c2sc3c(N4CCOCC4)nc(-n4ccc(-c5cccc(C)c5)n4)nc3c2C)COC1 [Ex. 65, 4-(6-(3-methoxyoxetan-3-yl)-7-methyl-2-(3-(m-tolyl)-1H-pyrazol-1-yl)thieno[3,2-d]pyrimidin-4-yl)morpholine]
PIKFYVE
  IC50: 0.001 to 0.01 µM

## Cc1cccc(-c2ccn(-c3cc(N4CCOCC4)c4sc(CN5CCOCC5)cc4n3)n2)c1 [Ex. 66, 4-((7-morpholino-5-(3-(m-tolyl)-1H-pyrazol-1-yl)thieno[3,2-b]pyridin-2-yl)methyl)morpholine]
PIKFYVE
  IC50: < 0.001 µM

## Cc1cccc(-c2ccn(-c3cc(N4CCOCC4)c4sc(CN5CCN(C)CC5)cc4n3)n2)c1 [Ex. 67]
PIKFYVE
  IC50: < 0.001 µM

## Cc1cccc(-c2ccn(-c3cc(N4CCOCC4)c4sc(CN5CCN(S(C)(=O)=O)CC5)cc4n3)n2)c1 [Ex. 68, 4-(2-((4-(methylsulfonyl)piperazin-1-yl)methyl)-5-(3-(m-tolyl)-1H-pyrazol-1-yl)thieno[3,2-b]pyridin-7-yl)morpholine]
PIKFYVE
  IC50: < 0.001 µM

## Cc1cccc(-c2ccn(-c3cc(N4CCOCC4)c4sc(CN5CCC(N(C)C)C(F)C5)cc4n3)n2)c1 (stereo not shown) [Ex. 69, 3-fluoro-N,N-dimethyl-1-((7-morpholino-5-(3-(m-tolyl)-1H-pyrazol-1-yl)thieno[3,2-b]pyridin-2-yl)methyl)piperidin-4-amine]
PIKFYVE
  IC50: < 0.001 µM

## Cc1cccc(-c2ccn(-c3cc(N4CCOCC4)c4sc(CN5CCC(N6CCC6)C(F)C5)cc4n3)n2)c1 (stereo not shown) [Ex. 70, 4-(2-((4-(azetidin-1-yl)-3-fluoropiperidin-1-yl)methyl)-5-(3-(m-tolyl)-1H-pyrazol-1-yl)thieno[3,2-b]pyridin-7-yl)morpholine]
PIKFYVE
  IC50: < 0.001 µM

## Cc1cccc(-c2ccn(-c3nc(N4CCCOCC4)c4sc(CN5CCN(S(C)(=O)=O)CC5)cc4n3)n2)c1 [Ex. 71, 4-(6-((4-(methylsulfonyl)piperazin-1-yl)methyl)-2-(3-(m-tolyl)-1H-pyrazol-1-yl)thieno[3,2-d]pyrimidin-4-yl)-1,4-oxazepane]
PIKFYVE
  IC50: 0.01 to 0.1 µM

## Cc1cccc(-c2ccn(-c3cc(N4CCOCC4)c4nc(CN5CCN(S(C)(=O)=O)CC5)n(C)c4n3)n2)c1 [Ex. 72, 4-(3-methyl-2-((4-(methylsulfonyl)piperazin-1-yl)methyl)-5-(3-(m-tolyl)-1H-pyrazol-1-yl)-3H-imidazo[4,5-b]pyridin-7-yl)morpholine]
PIKFYVE
  IC50: < 0.001 µM

## Cc1cccc(-c2ccn(-c3nc(N4CC5CC4CO5)c4sc(CN5CCN(S(C)(=O)=O)CC5)cc4n3)n2)c1 (stereo not shown) [Ex. 73, 5-(6-((4-(methylsulfonyl)piperazin-1-yl)methyl)-2-(3-(m-tolyl)-1H-pyrazol-1-yl)thieno[3,2-d]pyrimidin-4-yl)-2-oxa-5-azabicyclo[2.2.1]heptane]
PIKFYVE
  IC50: 0.01 to 0.1 µM

## Cc1cccc(-c2ccn(-c3cc(N4CCOCC4)c4nc(CN5CCOCC5)n(C)c4n3)n2)c1 [Ex. 74, 4-(3-methyl-2-(morpholinomethyl)-5-(3-(m-tolyl)-1H-pyrazol-1-yl)-3H-imidazo[4,5-b]pyridin-7-yl)morpholine]
PIKFYVE
  IC50: < 0.001 µM

## Cc1cccc(-c2ccn(-c3cc(N4CCOCC4)c4nc(CO)n(C)c4n3)n2)c1 [Ex. 75, (3-methyl-7-morpholino-5-(3-(m-tolyl)-11H-pyrazol-1-yl)-3H-imidazo[4,5-b]pyridin-2-yl)methanol]
PIKFYVE
  IC50: 0.001 to 0.01 µM

## Cc1cccc(-c2ccn(-c3cc(N4CCOCC4)c4nc(CN5CCC(C(C)(C)O)CC5)n(C)c4n3)n2)c1 [Ex. 76, 2-(1-((3-methyl-7-morpholino-5-(3-(m-tolyl)-1H-pyrazol-1-yl)-3H-imidazo[4,5-b]pyridin-2-yl)methyl)piperidin-4-yl)propan-2-ol]
PIKFYVE
  IC50: < 0.001 µM

## Cc1cccc(-c2ccn(-c3nc(N4CCC(=O)C4)c4sc(CN5CCN(S(C)(=O)=O)CC5)cc4n3)n2)c1 [Ex. 129, 1-(6-((4-(methylsulfonyl)piperazin-1-yl)methyl)-2-(3-(m-tolyl)-1H-pyrazol-1-yl)thieno[3,2-d]pyrimidin-4-yl)pyrrolidin-3-one]
PIKFYVE; @ 30 nM
  inhibition at 0.03 µM: 92%

## Cc1cccc(-c2ccn(-c3nc(N4CCOCC4)c4sc(N5CCN(S(C)(=O)=O)CC5)cc4n3)n2)c1 [Ex. 165, 4-(6-(4-(methylsulfonyl)piperazin-1-yl)-2-(3-(m-tolyl)-1H-pyrazol-1-yl)thieno[3,2-d]pyrimidin-4-yl)morpholine]
PIKFYVE
  inhibition at 0.003 µM: 22%

## Cc1cccc(-c2ccn(-c3cc(N4CCOCC4)c4sc(CN5CCOCC5)c(C)c4n3)n2)c1 [Ex. 167, 4-(3-Methyl-2-(morpholinomethyl)-5-(3-(m-tolyl)-1H-pyrazol-1-yl)thieno[3,2-b]pyridin-7-yl)morpholine]
PIKFYVE
  inhibition at 0.003 µM: 0%

## Cc1cccc(-c2ccn(-c3cc(N4CCOCC4)c4sc(CN5CCC(C(C)(C)O)CC5)c(C)c4n3)n2)c1 [Ex. 168, 2-(1-((3-Methyl-7-morpholino-5-(3-(m-tolyl)-1H-pyrazol-1-yl)thieno[3,2-b]pyridin-2-yl)methyl)piperidin-4-yl)propan-2-ol]
PIKFYVE
  inhibition at 0.003 µM: 23%

## Brc1ccn(-c2cc(N3CCOCC3)c3sc(CN4CCOCC4)cc3n2)n1 [Ex. 173, 4-(5-(3-Bromo-1H-pyrazol-1-yl)-2-(morpholinomethyl)thieno[3,2-b]pyridin-7-yl)morpholine]
PIKFYVE
  inhibition at 0.005 µM: 8%

## CC(=O)c1cccc(-c2ccn(-c3cc(N4CCOCC4)c4sc(CN5CCOCC5)cc4n3)n2)c1 [Ex. 184, 1-(3-(1-(7-Morpholino-2-(morpholinomethyl)thieno[3,2-b]pyridin-5-yl)-1H-pyrazol-3-yl)phenyl)ethan-1-one]
PIKFYVE
  inhibition at 0.005 µM: 5%

## Cc1cc(-c2ccn(-c3cc(N4CCOCC4)c4sc(CN5CCOCC5)cc4n3)n2)ccn1 [Ex. 190, 4-(5-(3-(2-Methylpyridin-4-yl)-1H-pyrazol-1-yl)-2-(morpholinomethyl)thieno[3,2-b]pyridin-7-yl) morpholine]
PIKFYVE
  inhibition at 0.005 µM: 5%

## CC(O)c1cccc(-c2ccn(-c3cc(N4CCOCC4)c4sc(CN5CCOCC5)cc4n3)n2)c1 (stereo not shown) [Ex. 193, 1-(3-(1-(7-Morpholino-2-(morpholinomethyl)thieno[3,2-b]pyridin-5-yl)-1H-pyrazol-3-yl)phenyl)ethan-1-ol]
PIKFYVE
  inhibition at 0.005 µM: 22%

## CCC(CC)COC(=O)[C@H](C)N[P@](=O)(OC[C@H]1O[C@@](C#N)(c2ccc3c(N)ncnn23)[C@H](O)[C@@H]1O)Oc1ccccc1 [remdesivir, reference compound]
In vitro [9]
  CC50: > 100 µM
[8]
  EC50: 5.6 µM

## NC(=O)c1ncn([C@@H]2O[C@H](CO)[C@@H](O)[C@H]2O)n1 [ribavirin, reference compound]
[7]
  EC50: 3.8 µM
In vitro [9]
  CC50: > 1000 µM
